Results from patent US3947411A, “Novel 1-aryl-2-arylalkyl-3-or-4-[4'-(substituted-alkyl)piperazino-1']butanols- 2-or-butenes-1, and methods of manufacture thereof” (Warner-Lambert Company, priority 1972, dated 1976).
Values after ≈ are worked out from the molar mass of the structure shown.

Assays:
Solubility in water = format: physicochemical; conditions: hydrochlorides or oxalates, read-out: solubilities (in water)
Description: The following list contains examples of those compounds which are made according to the methods disclosed. (The individual compounds are identified by elementary analyses and infrared spectra, by ultra-violet or nuclear resonance spectra, if necessary.) Individual melting points and solubilities (in water) are also given as is the method by which each compound is prepared.
The melting points and solubilities are given for the Hydrochlorides I - XVI; XVIII - XXVII; XXIX - XXXV; XXXVII - XLII; XLIV - LXII; LXIV - LXVII, and the Oxalates XVII; […]; XXXVI; LXIII.

A. niger [1] = experiment: Minimum inhibitory concentration for fungi in presence of serum, A. niger (Table VI); format: cell-based; conditions: Aspergillus niger; Sabouraud nutrient broth + 10% bovine serum, 28°C, 48 hours
C. albicans [2] = experiment: Minimum inhibitory concentration for fungi, tube dilution, C. albicans (Table IV); conditions: Candida albicans, 48 h, read-out: Minimum Inhibitory Concentration, C. albicans
Description: (§1) A tube dilution series of the respective compound in Sabouraud nutrient broth, whose individual tubes contained concentrations of 1024 μg, 512 μg, 256 μg, 128 μg, 64 μg, 32 μg, 16 μg, 8 μg, 4 μg, 2 μg, 1.1 μg and 0.5 μg/ml, was prepared and inoculated with a photometrically standardized suspension of the test organisms or the spores thereof.

C. albicans [3] = experiment: Minimum inhibitory concentration for fungi in presence of serum, C. albicans (Table VI); format: cell-based; conditions: Candida albicans; Sabouraud nutrient broth + 10% bovine serum, 28°C, 48 hours
Escherichia coli = experiment: Agar well inhibition zone test against bacteria, Escherichia coli (Table III); conditions: quantity per well giving inhibition zone (500, 50, 5 μg tested); nutrient agar, 37°, 24 hours
Description: The efficacy of the compounds against bacteria was tested as follows:
The test organisms, in this case Staphylococcus aureus and Escherichia coli, were inoculated on nutrient agar as described in Example 12, wells were punched, and the solutions of the compounds were transferred to fill the wells. The quantity of compound in the wells amounted again to 500 μg, 50 μg and 5 μg.
After incubation a 37° for 24 hours the quantity of compound was determined at which an inhibition of the organism's growth, in the form of an inhibition zone around the corresponding well, occurred.

A. niger [4] = experiment: Minimum inhibitory concentration for fungi, tube dilution, A. niger (Table IV); conditions: Aspergillus niger, 48 h, read-out: Minimum Inhibitory Concentration, A. niger
Description: as §1

Staphylococcus aureus = experiment: Agar well inhibition zone test against bacteria, Staphylococcus aureus (Table III); conditions: quantity per well giving inhibition zone (500, 50, 5 μg tested); nutrient agar, 37°, 24 hours
Candida albicans = experiment: Agar well inhibition zone test against fungi, Candida albicans (Table II); conditions: quantity per well giving inhibition zone (500, 50, 5 μg tested); Sabouraud agar, 28°, 48 hours
Description: (§2) The efficacy of the compounds against fungi was tested as follows:
(§3) The test organisms, in this case the blastomycete Candida albicans and the mold Aspergillus niger, were inoculated onto Sabouraud agar plates by pouring a photometrically adjusted standard suspension of organisms on the plate. After inoculation, wells with a diameter of 5.0 mm were punched in the agar, and filled with 50 ul of the compound solution mentioned before. The quantity of compound applied thus amounted to 500 μg, 50 μg and 5 μg. After incubation at 28° for 48 hours, the quantity of compound was determined at which an inhibition of the organism's growth, in form of an inhibition zone around the corresponding well, was present.

Aspergillus niger = experiment: Agar well inhibition zone test against fungi, Aspergillus niger (Table II); conditions: quantity per well giving inhibition zone (500, 50, 5 μg tested); Sabouraud agar, 28°, 48 hours
Description: as §2, §3

Staph. aureus = experiment: Minimum inhibitory concentration for bacteria, tube dilution, Staph. aureus (Table V); conditions: Staphylococcus aureus, 48 h, read-out: Minimum Inhibitory Concentration, Staph. aureus
Description: A tube dilution series of the respective compound in nutrient broth whose individual tubes contained concentrations of 1024 μg, 512 μg, 256 μg, 128 μg, 64 μg, 32 μg, 1 μg, 8 μg, 4 μg, 2 μg, 1.1 μg and 0.5 μg/ml was prepared and inoculated with a photometrically standardized suspension of the test organisms.

[5] = system: Mycobacterium tuberculosis II 37 RV (typus humanus); experiment: Efficacy against Mycobacteria, Tb-broth dilution series (Table I); format: cell-based; conditions: 504 h, Dubos Tb-broth + 10% bovine serum, 21 days, read-out: Minimum Inhibitory Concentration

Compound	solubility (Solubility in water) [mg/mL]	MIC (A. niger [1]) [µg/mL]	MIC (C. albicans [2]) [µg/mL]	MIC (C. albicans [3]) [µg/mL]	Inhibition Area at μg, E. coli (Escherichia coli) [µg]	MIC (A. niger [4]) [µg/mL]	Inhibition Area at μg, Staph. aureus (Staphylococcus aureus) [µg]	Inhibition Area at μg, Cand. albicans (Candida albicans) [µg]	Inhibition Area at μg, Asp. niger (Aspergillus niger) [µg]	MIC (Staph. aureus) [µg/mL]	MIC [5] [µg/mL]
CN1CCN(CCCCCCN2CCN(CCC(=Cc3ccccc3)Cc3ccccc3)CC2)CC1 [LXV, 1-phenyl-2-benzyl-4-[4'-w-(4"-methyl-piperazino-1")-n-hexyl-piperazino-1']-butene-1]	100 (≈ 205000 µM)	8	32 (≈ 65.5 µM)	32	500	8 (≈ 16.4 µM)	500	5	5	–	–
CC(C(=Cc1ccccc1)Cc1ccccc1)N1CC[N+]2(CCCCCC2)CC1 (stereo not shown) [LXVII, hexahydro-azepinium-1-spiro-1'-piperazinium-4'-(3-benzyl-4-phenyl-but-3-en-2-yl)-chloride]	10	128	128	64	500	128	50	50	50	8	–
CC1CN(CCN2CCN(C(C)C(O)(Cc3ccccc3)Cc3ccccc3)CC2)CCO1 (stereo not drawn) [VI, 1-phenyl-2-benzyl-3-{4'-[β-(2"-methyl-morpholino)-ethyl]-piperazino-1'}-butanol-2]	100 (≈ 221000 µM)	–	–	–	> 500	–	> 500	500	500	–	100
CC(N1CCN(CCN2CCN(C)CC2)CC1)C(O)(Cc1ccccc1)Cc1ccccc1 (stereo not drawn) [X, 1-phenyl-2-benzyl-3-{4'-[β-(4"-methyl-piperazino-1")-ehtyl]-piperazino-1'}-butanol-2]	100 (≈ 222000 µM)	16	16 (≈ 35.5 µM)	16	500	16 (≈ 35.5 µM)	500	50	50	–	–
CC(c1ccccc1)N1CCN(CCN2CCN(C(C)C(O)(Cc3ccccc3)Cc3ccccc3)CC2)CC1 (stereo not drawn) [XIII, 1-phenyl-2-benzyl-3-{4'-[β-(4"-α-phenethyl-piperazino-1")-ethyl]-piperazino-1'}-butanol-2]	100 (≈ 185000 µM)	256	–	513	500	–	5	500	500	32 (≈ 59.2 µM)	–
CC(N1CCN(CCN2CCN(CCc3ccccc3)CC2)CC1)C(O)(Cc1ccccc1)Cc1ccccc1 (stereo not drawn) [XIV, 1-phenyl-2-benzyl-3-{4'-[β-(4"-β-phenethyl-piperazino-1")-ethyl]-piperazino-1'}-butanol-2]	100 (≈ 185000 µM)	64	32 (≈ 59.2 µM)	128	500	16 (≈ 29.6 µM)	50	50	50	32 (≈ 59.2 µM)	–
CC(N1CCN(CCCl)CC1)C(O)(Cc1ccccc1)Cc1ccccc1 (stereo not drawn) [XLV, 1-phenyl-2-benzyl-3-[4'-(β-chloro-ethyl)-piperazino-1']-butanol-2]	25 (≈ 64600 µM)	–	> 1020	–	500	–	50	50	500	> 1020	100
CC(N1CCN(CCCCCCN2CCCCC2)CC1)C(O)(Cc1ccccc1)Cc1ccccc1 (stereo not shown) [XX, 1-phenyl-2-benzyl-3-[4'-(w-piperidino-n-hexyl)-piperazino-1']-butanol-2]	100 (≈ 203000 µM)	8	64 (≈ 130 µM)	128	500	4 (≈ 8.13 µM)	50	50	5	128 (≈ 260 µM)	–
Cc1cccc(CC(O)(Cc2cccc(C)c2)C(C)N2CCN(CCN3CCCCC3)CC2)c1 (stereo not drawn) [XXI, 1-m-tolyl-2-m-methylbenzyl-3-[4'-(β-piperidino-ethyl)-piperazino-1']-butanol-2]	100 (≈ 216000 µM)	128	8 (≈ 17.3 µM)	256	> 500	4 (≈ 8.63 µM)	5	50	5	64 (≈ 138 µM)	–
CC(N1CCN(Cc2cccnc2)CC1)C(O)(Cc1ccccc1)Cc1ccccc1 (stereo not shown) [XXIII, 1-phenyl-2-benzyl-3-[4'-(3"-pyridylmethyl)-piperazino-1']-butanol-2]	50 (≈ 120000 µM)	–	–	–	> 500	–	500	500	> 500	–	1000
CC(N1CCN(Cc2ccncc2)CC1)C(O)(Cc1ccccc1)Cc1ccccc1 (stereo not shown) [XXIV, 1-phenyl-2-benzyl-3-[4'-(4"-pyridylmethyl)-piperazino-1']-butanol-2]	100 (≈ 241000 µM)	128	–	128	> 500	–	> 500	> 500	> 500	–	–
CC(C(=Cc1ccccc1)Cc1ccccc1)N1CCN(CCN(C(C)C)C(C)C)CC1 (stereo not drawn) [XXVIII, 1-phenyl-2-benzyl-3-[4'-(β-diisopropylamino-ethyl)-piperazino-1']-butene-1]	10 (≈ 23100 µM)	> 1020	64 (≈ 148 µM)	256	500	32 (≈ 73.8 µM)	50	50	50	64 (≈ 148 µM)	–
CC1CCN(CCN2CCN(C(C)C(=Cc3ccccc3)Cc3ccccc3)CC2)CC1 (stereo not drawn) [XXXV, 1-phenyl-2-benzyl-3-{4'-[β-(4"-methylpiperidino)-ethyl]-piperazino-1'}-butene-1]	10 (≈ 23200 µM)	128	8 (≈ 18.5 µM)	32	500	8 (≈ 18.5 µM)	50	50	50	256 (≈ 593 µM)	–
CC(C(=Cc1ccccc1)Cc1ccccc1)N1CCN(CCN2CCN(C)CC2)CC1 (stereo not drawn) [XXXVI, 1-phenyl-2-benzyl-3-{4'-[β-(4"-methylpiperazino-1")-ethyl]-piperazino-1'}-butene-1]	< 10	8	4 (≈ 9.25 µM)	32	> 500	2 (≈ 4.62 µM)	500	50	50	–	–
CC(C(=Cc1ccccc1)Cc1ccccc1)N1CCN(CCN2CCN(C(C)c3ccccc3)CC2)CC1 (stereo not drawn) [XXXVIII, 1-phenyl-2-benzyl-3-{4'-[β-(4"-α-phenethyl-piperazino-1")-ethyl]-piperazino-1'}-butene-1]	100 (≈ 191000 µM)	> 1020	–	> 1020	500	–	5	500	500	128 (≈ 245 µM)	–
